This is an account of results in patent publication EP2433624B1, “Use of buparvaquone for controlling mites parasitising honeybees” (Bimeda International Pharmaceuticals Limited, priority 2010, dated 2012).

SMILES strings stand for the structures.

The subject of series [1] is Varroa mites. In words: Toxicity to Varroa mites submerged in 3µL liquid in eppendorf tubes. To be noted: for mean number of live mites: day 3, 10 mites per tube. Format: in vivo. Here is the method:
Example 5 - Toxicity of BPQ A to Varroa mites
To assess the toxicity of BPQ to the Varroa mite
Varroa mites only feed on haemolymph of larvae and adult bees and thus would not ingest BPQ in a syrup/water solution. Therefore, it was necessary to identify a volume sufficient to permeate through the cuticle, but not drown the mites. After preliminary investigation it was concluded that 3µL/10 mites/eppendorf tube gave the maximum viability and the latter was used for this trial.
A total of 3µL of BPQ A/solvent was pipetted into each eppendorf tube. Ten mites taken from purple eye drone pupae were submerged in the liquid by tapping the tube gently and a fresh pupa was placed in each tube. 20 pinholes were made in each of the tubes and all samples were placed in the incubator at 30°C. Three replicates were made for each concentration and water was used in the control group. Concentrations of BPQ A and solvent were as described above (Section 1.1). The number of damaged or dead mites was counted on a daily basis. Damaged mites were mites that would not move in a coordinated fashion when touched gently 3 times with a fine brush.

Series [2] deals with mammals. To be noted: dosages many thousands of times higher than those in the invention; cited from earlier work.
Series [3] concerns honeybee larvae. Nature of the series: Toxicity of BPQ A in an aqueous solution when sprayed on honeybee larvae. The series is classed as in vivo, Apis mellifera. As to conditions: summary statement. As to the method: Example 3 - Toxicity of BPQ A in an aqueous solution when sprayed on honeybee larvae (50mL liquid at a concentration of 50mg/mL - BPQ A)
To spray eggs/larvae with different concentrations of the active ingredient/solvent and examine the effect on development of the young larvae
Eggs/larvae of similar age were attained by placing the queen bee in a frame cage for 36 hrs. Once the frame was laid up, the queen was released and the frame was replaced in the colony for 3 days. The frame cage allowed worker bees to attend the larvae, but prevented the queen from laying in the frame. On day 3/4, when the eggs were changing to larvae, the frame was removed and divided temporarily in 6 x 5cm strips at either side using grease proof paper to facilitate the assessment of product and solvent. Within each strip, three 3.5cm x 2.5cm squares (approximately 30 cells) of grease proof paper was removed and the developing larvae sprayed with BPQ A/solvent at the concentrations described above.

Series [4] can be described thus: Solubility in water. Format: physicochemical.

As for `CC(C)(C)[C@H]1CC[C@H](CC2=C(O)C(=O)c3ccccc3C2=O)CC1` [BPQ, buparvaquone], the “mean number of live mites” value is 8.66±1.73 in series [1] (0.00005µg/mL (g)), 7.66±1.33 in series [1] (0.0005µg/mL (f)) and 3.33±2.4 in series [1] (0.5µg/mL). For the same compound, in series [1] (summary statement), the “toxicity to free living Varroa mites” value was “highly toxic”. In series [2], the neurotoxic effect result is on record as “no neurotoxic effect whatsoever”. For the same compound, the “toxicity to bee larvae” value in series [3] is “non-toxic”. Further, in series [4], the solubility in water entry is recorded as “completely insoluble”.
